Assay results: patent US5068325A, “4,5,7,8-tetrahydro-6H-thiazolo[5,4-d]azepines, their preparation and their use as pharmaceutical compositions” (priority 1988, dated 1991)

Legend:
Assay type in all cases: binding
alpha-2 receptors = biological target: T1, alpha-2 receptors (Rattus norvegicus, UniProt P22909); assay: affinity for alpha-2 receptors by displacement experiments with [3H]-clonidine (rat cortex membranes); details: read-out: α2-IC50
T1 sequence (P22909 1-465): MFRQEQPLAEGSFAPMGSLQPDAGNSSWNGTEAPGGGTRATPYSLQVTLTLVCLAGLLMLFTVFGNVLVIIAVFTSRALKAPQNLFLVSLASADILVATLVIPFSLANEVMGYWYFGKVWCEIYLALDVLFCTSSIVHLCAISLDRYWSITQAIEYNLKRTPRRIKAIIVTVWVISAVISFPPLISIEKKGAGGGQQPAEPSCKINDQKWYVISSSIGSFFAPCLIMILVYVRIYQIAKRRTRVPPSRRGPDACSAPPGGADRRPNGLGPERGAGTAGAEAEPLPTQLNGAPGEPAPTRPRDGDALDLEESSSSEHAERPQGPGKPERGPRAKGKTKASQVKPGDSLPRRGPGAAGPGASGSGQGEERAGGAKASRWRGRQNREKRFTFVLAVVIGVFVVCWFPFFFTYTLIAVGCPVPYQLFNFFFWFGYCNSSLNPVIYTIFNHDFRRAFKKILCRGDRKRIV

[1] = biological target: T2, serotonin-1A(5-HT1A) receptors (Rattus norvegicus, UniProt P19327); assay: affinity for serotonin-1A (5-HT1A) receptors by displacement experiments with [3H]-8-OH-DPAT (rat frontal cortex); details: [3H]-8-OH-DPAT; rat frontal cortex; read-out: 5-HT1A-Ki
T2 construct: The frontal cortex was dissected out; from tissue; host or cells: rat frontal cortex homogenate (Chbb:Thom strain)
T2 sequence (P19327 1-422): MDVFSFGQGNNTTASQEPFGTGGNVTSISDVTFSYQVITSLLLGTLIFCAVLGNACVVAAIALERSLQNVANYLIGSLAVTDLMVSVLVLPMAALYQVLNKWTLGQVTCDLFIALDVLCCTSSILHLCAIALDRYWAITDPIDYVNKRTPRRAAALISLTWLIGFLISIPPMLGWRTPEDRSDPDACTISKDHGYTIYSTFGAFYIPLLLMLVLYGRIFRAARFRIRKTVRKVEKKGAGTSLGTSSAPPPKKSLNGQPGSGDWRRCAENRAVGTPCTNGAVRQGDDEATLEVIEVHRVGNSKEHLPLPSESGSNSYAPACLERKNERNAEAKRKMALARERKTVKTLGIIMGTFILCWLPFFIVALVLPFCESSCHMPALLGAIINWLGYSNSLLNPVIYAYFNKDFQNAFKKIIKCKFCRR
Procedure: 3. […] (Method of S. J. Peroutka, J. Neurochem. 47, 529 (1986), modified according to H. Gozlan et al., J. Receptor Research 7. 195 (1987))
A male rat (Chbb:Thom strain weighing about 200 g) was decapitated. The brain was removed and placed in ice-cold buffer (50 mmol/1 tris-HCl plus hydrochloric acid ad pH =7.4 at ambient temperature). The frontal cortex was dissected out; its moist weight was determined. It was homogenised in 40 times its volume of buffer (Polytron, position 6, 10 seconds), then centrifuged for 20 minutes at 45,000×g in the refrigerated centrifuge. The pellet was washed in 100 times its volume of buffer and centrifuged again as described above. The resulting pellet was resuspended in 40 times its volume of buffer and pre-incubated for 10 minutes at 37° C. Sixty times the volume of buffer were added and centrifuging was carried out as above. The resulting pellet was washed with 100 times the volume of buffer and centrifuged as above. The pellet was resuspended in buffer (0.8 ml/10 mg) and briefly homogenised in the Polytron. This homogenised tissue was cooled in ice until ready for incubation.
Incubation was stopped by rapid filtering through Whatman GF/B filters; rinsing was carried out twice, each time with 5 ml of ice cold buffer (Filter Prep, Messrs. Ismatec). The radioactivity of the filters was determined by liquid scintillation measurement.
Specific binding is obtained from total binding minus non-specific binding.

dopamine D1-receptors = biological target: T3, dopamine D1-receptors (Rattus norvegicus, UniProt P18901); assay: affinity for dopamine D1-receptors by displacement experiments with [3H]-Sch 23390
T3 construct: The striata were dissected out, weighed and homogenised in 25 volumes of tris buffer; from tissue; host or cells: rat striatum membranes (Chbb:Thom strain), prepared as for the D2 assay
Procedure: Male rats (of the Chbb:Thom strain weighing about 200 g) were killed by a blow to the back of the neck. The brains were removed and dissected on ice. The striata were dissected out, weighed and homogenised in 25 volumes of tris buffer (50 mM tris-HCl, 1 mM EDTA, 5 mM MgCl2 and 1 mM ascorbic acid) for 30 seconds in an Ultra-Turrax at maximum speed, followed by 10 cycles in a Potter-Elvehjem at 1400 rpm. The pellet obtained after centrifuging at 50,000×g at 4° C. for 15 minutes was again taken up in 25 ml of tris buffer and centrifuged under the above conditions. The supernatant was discarded and the pellet obtained was incubated in 25 ml of tris buffer at 37° C. for 30 minutes and then centrifuged again at 50,000×g at 4° C. for 15 minutes. Finally, the pellet obtained was mixed with tris buffer to obtain a homogenate dilution of 1:500 (based on the weight of the striata).
Displacement curves were obtained from the data using the TOPFIT programming package (G. Heinzel in "Pharmacokinetics During Drug Development: Data Analysis and Evaluation Techniques", G. Bozler and J. M. van Rossum Eds., G. Fischer Verlag, Stuttgart 1982, 207).
7. Determining the affinity for dopamine D1-receptors by displacement experiments with [^3 H1-Sch 23390
The membrane preparation and data analysis were carried out as described for determining the affinity for dopamine D2 - receptors.
1 ml aliquots of the membrane preparation were incubated for 1 hour at ambient temperature with 1 ml of a solution of 0.25 nM [^3 H]-Sch 23390 (2.44 TBq/mmol, Messrs. DuPont NEN) and with increasing concentrations of the test substance (10^-11 to 10^-4 M). Incubation was ended by the addition of 5 ml of ice cold tris buffer and filtration through Whatman GF/B filters. The filters were washed twice, each time with 5 ml of ice cold buffer. The radioactivity of the filters was determined by liquid scintillation measurement in Instagel(R) (Messrs. Canberra Packard).
The non-specific binding was determined in the presence of 10^-6 M (-)-butaclamol (Research Biochemicals Inc.).

T3 sequence (P18901 whole entry): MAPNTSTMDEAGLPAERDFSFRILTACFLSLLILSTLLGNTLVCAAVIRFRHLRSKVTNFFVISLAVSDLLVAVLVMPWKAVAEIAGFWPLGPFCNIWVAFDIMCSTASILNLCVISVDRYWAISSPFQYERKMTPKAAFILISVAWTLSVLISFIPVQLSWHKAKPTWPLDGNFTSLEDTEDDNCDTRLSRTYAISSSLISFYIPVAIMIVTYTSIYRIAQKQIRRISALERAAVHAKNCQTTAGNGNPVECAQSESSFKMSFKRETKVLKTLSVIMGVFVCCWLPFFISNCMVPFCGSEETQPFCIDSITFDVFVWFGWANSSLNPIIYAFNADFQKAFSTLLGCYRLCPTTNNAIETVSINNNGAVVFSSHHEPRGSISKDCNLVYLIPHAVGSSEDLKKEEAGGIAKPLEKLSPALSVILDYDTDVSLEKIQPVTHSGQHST

In the case of N#Cc1ccc(C=CCN2CCc3nc(N)sc3CC2)cc1 [Example 14b, 2-Amino-6-(3-(4-cyano-phenyl)allyl)-4,5,7,8-tetrahydro-6H-thiazolo[5,4-d]azepine], the IC50 (alpha-2 receptors) is reported as 500 nM and the Ki [1] is reported as 7800 nM.
For Nc1nc2c(s1)CCN(CC=Cc1cccc(OCc3ccccc3)c1)CC2 [Example 4y, 2-Amino-6-(3-(3-benzyloxy-phenyl)allyl)-4,5,7,8-tetrahydro-6H-thiazolo[5,4-d]azepine], the IC50 (alpha-2 receptors) was 300 nM, the Ki (dopamine D1-receptors) was 1500 nM and the Ki [1] was 23000 nM.
With Nc1nc2c(s1)CCN(CC=Cc1nccc3ccccc13)CC2 [Example 7a, 2-Amino-6-(3-(1-isoquinolinyl)allyl)-4,5,7,8-tetrahydro-6H-thiazolo[5,4-d]azepine] the IC50 (alpha-2 receptors) was 3100 nM, the Ki (dopamine D1-receptors) was 180 nM and the Ki [1] was 1100 nM.
For Nc1nc2c(s1)CCN(CC=Cc1cccc3ccccc13)CC2 [Example 4t, 2-Amino-6-(3-(1-naphthyl)allyl)-4,5,7,8-tetrahydro-6H-thiazolo[5,4-d]azepine], the IC50 (alpha-2 receptors) was 460 nM, the Ki (dopamine D1-receptors) was 210 nM and the Ki [1] was 350 nM.
C=CCN1CCc2nc(N)sc2CC1 [Compound A, reference compound] was tested, and the IC50 (alpha-2 receptors) was 24 nM, the Ki (dopamine D1-receptors) was 12000 nM and the Ki [1] was 4690 nM.
Work on Nc1nc2c(s1)CCN(Cc1ccc(Cl)cc1)CC2 [Compound B, reference compound] yielded an IC50 (alpha-2 receptors) of 410 nM and a Ki (dopamine D1-receptors) of 11000 nM.
Nc1nc2c(s1)CCN(CC=Cc1ccccc1N1CCCCC1)CC2 [Example 11p, 2-Amino-6-(3-(2-(1-piperidino)phenyl)-2-propen-1-yl)-4,5,7,8-tetrahydro-6H-thiazolo[5,4-d]azepine] showed an IC50 (alpha-2 receptors) of 3000 nM, a Ki (dopamine D1-receptors) of 920 nM and a Ki [1] of 1770 nM.
With Nc1nc2c(s1)CCN(CC=Cc1cc3ccccc3cn1)CC2 [Example 24a, 2-Amino-6-(3-(3-isoquinolinyl)allyl)-4,5,7,8-tetrahydro-6H-thiazolo[5,4-d]azepine] the IC50 (alpha-2 receptors) was 900 nM, the Ki (dopamine D1-receptors) was 3000 nM and the Ki [1] was 3500 nM.
